From patent US20080004302A1, “Novel Compounds” (ASTRAZENECA AB, priority 2006, published 2008)
pIC50: −log10 of the molar value. Like-named read-outs stand apart in the source and are kept apart here.

How the values were obtained:
[1] = target: T1, human cytochrome P450 (CYP) 3A4 (Homo sapiens, UniProt P08684); experiment: Cytochrome P450 inhibition assay, 3A4; assay type: in vitro ADME; conditions: test concentrations 0.1-10 μM
T1 construct: made in house; host or cells: yeast (microsomal fraction)
T1 sequence (P08684 whole entry): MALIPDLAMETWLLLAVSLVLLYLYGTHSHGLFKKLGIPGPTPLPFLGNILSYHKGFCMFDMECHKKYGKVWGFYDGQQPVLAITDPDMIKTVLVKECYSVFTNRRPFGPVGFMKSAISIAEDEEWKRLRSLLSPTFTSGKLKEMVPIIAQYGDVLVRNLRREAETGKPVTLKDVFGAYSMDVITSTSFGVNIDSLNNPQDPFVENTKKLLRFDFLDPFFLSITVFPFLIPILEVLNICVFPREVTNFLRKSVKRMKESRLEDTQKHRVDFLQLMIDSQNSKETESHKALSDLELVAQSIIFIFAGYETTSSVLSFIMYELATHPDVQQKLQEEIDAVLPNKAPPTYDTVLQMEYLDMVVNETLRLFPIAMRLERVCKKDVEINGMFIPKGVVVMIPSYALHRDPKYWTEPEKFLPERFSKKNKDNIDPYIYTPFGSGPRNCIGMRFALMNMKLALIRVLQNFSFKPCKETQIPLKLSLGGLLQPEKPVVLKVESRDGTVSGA
Experimental: (§1) The inhibitory potential (IC50) of test compounds against 5 human cytochrome P450 (CYP) isoforms (IA2, 2C9, 2C19, 3A4 and 2D6) was assessed using an automated fluorescent end point in vitro assay modified from Crespi (Crespi and Stresser, 2000). Microsomal subcellular fractions prepared from Yeast cell lines expressing each human CYP isoform were used as an enzyme source in this assay. The activity of the 5 major human CYPs was determined from the biotransformation of a number of coumarin substrates to fluorescent metabolites, in the presence of NADPH. […] Stock solutions of each CYP, with its respective substrate, were prepared in phosphate buffer pH7.4 (see Table 1) and 178 μl was added to the well of a black solid, flat bottom, 300 μl 96 well microtitre plate (Coming Costar). […] After pre-incubating at 37° C. for 5 min the reactions were started with addition of NADPH (20 μl, concentration shown in Table 1). The final solvent content in each incubation was <=2% (1% from the test compound and a maximum of 1% from the substrate). The appropriate solvent controls and substrate blanks were included in each experiment to assess control activity and identify any inherent fluorescence due to the test compounds. In addition, known inhibitors of each CYP were included as positive controls (see Table 3 for inhibitor concentrations and expected IC50 ranges). The reactions were stopped at defined timepoints (see Table 1) by quenching with 100 μl of solvent (acetonitrile:0.5M Tris buffer 80:20 v/v). The plates were read on a fluorimeter (Spectrafluor Plus) at the appropriate excitation and emission wavelengths (listed in Table 2) and the percent activity, corrected for control, was plotted against the test compound concentration.

[2] = target: T2, human cytochrome P450 (CYP) 1A2 (Homo sapiens, UniProt P05177)
T2 sequence (P05177 1-516): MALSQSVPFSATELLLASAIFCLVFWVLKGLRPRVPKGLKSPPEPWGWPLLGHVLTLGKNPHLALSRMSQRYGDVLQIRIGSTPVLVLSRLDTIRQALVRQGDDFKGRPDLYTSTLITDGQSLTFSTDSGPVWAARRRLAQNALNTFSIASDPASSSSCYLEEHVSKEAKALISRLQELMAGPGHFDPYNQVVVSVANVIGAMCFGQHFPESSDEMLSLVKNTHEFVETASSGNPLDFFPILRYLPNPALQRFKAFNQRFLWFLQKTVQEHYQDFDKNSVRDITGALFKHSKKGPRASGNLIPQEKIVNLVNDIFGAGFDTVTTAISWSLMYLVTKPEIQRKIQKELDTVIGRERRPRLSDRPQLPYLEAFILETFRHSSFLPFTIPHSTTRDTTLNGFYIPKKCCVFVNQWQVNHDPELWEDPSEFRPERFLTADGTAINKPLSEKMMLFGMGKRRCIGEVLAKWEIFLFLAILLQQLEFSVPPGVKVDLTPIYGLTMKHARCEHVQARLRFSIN
Experimental: as §1

[3] = target: human cytochrome P450 (CYP) 2C9 (Homo sapiens, UniProt P11712)
Chain of human cytochrome P450 (CYP) 2C9 (P11712 whole entry): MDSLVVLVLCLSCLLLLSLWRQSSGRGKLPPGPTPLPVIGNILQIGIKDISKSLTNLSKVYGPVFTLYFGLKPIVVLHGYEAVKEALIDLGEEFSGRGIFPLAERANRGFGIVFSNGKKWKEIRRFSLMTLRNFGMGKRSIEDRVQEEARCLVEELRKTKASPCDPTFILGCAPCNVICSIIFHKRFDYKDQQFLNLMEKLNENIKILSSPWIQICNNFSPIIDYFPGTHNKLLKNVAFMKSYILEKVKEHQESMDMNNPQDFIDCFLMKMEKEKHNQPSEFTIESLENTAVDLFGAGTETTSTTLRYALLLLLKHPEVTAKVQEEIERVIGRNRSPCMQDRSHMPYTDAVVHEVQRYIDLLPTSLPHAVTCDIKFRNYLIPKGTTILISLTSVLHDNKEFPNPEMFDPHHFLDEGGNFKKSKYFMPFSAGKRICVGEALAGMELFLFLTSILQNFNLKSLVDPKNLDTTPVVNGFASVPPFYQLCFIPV
Experimental: as §1

[4] = target: human cytochrome P450 (CYP) 2C19 (Homo sapiens, UniProt P33261)
Chain of human cytochrome P450 (CYP) 2C19 (P33261 whole entry): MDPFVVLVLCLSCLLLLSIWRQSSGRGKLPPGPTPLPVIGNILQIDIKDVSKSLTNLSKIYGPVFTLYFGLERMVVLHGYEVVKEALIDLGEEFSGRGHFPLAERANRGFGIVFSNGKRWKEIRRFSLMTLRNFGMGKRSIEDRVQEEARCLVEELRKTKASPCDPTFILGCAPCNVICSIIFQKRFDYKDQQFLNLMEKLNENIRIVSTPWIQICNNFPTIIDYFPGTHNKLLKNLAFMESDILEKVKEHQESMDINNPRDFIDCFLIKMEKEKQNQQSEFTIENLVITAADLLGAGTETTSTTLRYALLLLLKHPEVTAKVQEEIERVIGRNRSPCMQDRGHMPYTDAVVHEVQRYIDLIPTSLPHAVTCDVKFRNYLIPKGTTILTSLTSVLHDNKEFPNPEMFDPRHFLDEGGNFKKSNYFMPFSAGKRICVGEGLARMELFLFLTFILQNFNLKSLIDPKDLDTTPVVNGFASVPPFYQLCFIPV
Experimental: as §1

CYP2D6 = CYP2D6 (Homo sapiens, UniProt P10635); experiment: in vitro; conditions: pH 7.4, probe coumarin substrate (not named)
Chain of CYP2D6 (P10635 whole entry, the tested form may be a part): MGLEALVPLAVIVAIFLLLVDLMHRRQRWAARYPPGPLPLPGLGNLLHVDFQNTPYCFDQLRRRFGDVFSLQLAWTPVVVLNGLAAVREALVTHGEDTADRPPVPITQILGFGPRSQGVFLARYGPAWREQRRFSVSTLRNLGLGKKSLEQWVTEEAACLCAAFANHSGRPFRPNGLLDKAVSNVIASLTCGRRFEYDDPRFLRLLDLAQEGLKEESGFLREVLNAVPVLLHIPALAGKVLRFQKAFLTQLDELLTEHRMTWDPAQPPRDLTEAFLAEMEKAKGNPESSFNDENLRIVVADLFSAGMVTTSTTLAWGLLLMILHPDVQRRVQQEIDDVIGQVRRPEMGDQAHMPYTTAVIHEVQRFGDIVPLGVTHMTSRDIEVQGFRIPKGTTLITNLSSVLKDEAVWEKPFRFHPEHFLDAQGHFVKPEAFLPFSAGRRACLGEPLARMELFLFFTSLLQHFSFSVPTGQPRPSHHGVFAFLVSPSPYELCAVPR
Experimental: as §1

FGFR kinase domain = target: T3, FGFR kinase domain (Homo sapiens, UniProt P11362, C488A/C584S); experiment: Kinase assay (ELISA) for inhibition of FGFR activity; assay type: biochemical
T3 construct: FGFR kinase domain (amino acids 458-765, C488A, C584S) N-terminally fused to a His6-tag; made in house
T3 sequence (P11362 458-765 C488A/C584S): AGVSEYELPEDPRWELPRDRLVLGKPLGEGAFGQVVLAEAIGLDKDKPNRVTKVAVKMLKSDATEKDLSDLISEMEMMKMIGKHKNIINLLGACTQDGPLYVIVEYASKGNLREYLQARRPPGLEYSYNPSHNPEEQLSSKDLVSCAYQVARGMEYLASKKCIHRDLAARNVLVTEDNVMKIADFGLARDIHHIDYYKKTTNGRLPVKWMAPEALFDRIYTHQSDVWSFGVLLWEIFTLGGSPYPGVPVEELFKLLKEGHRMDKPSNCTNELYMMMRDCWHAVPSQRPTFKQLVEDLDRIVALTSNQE
Experimental: To determine inhibition of FGFR activity, kinase assays were conducted using ELISA (Enzyme-Linked Immunosorbent Assay) technology.
Kinase activity assays were performed in 384-well polypropylene plates (Matrix, 4311) with a total volume of 40 μl in each well. Each well was coated with 2 μg of polyEAY substrate (Sigma, P3899) at 4° C. overnight. The plates were then washed once with 100 μl PBS and once with 100 μl 50 mM HEPES (pH 7.4) prior to the addition of the kinase assay reagents. […] Various concentrations of test compounds were each added in 5% (v/v) DMSO to yield a final assay DMSO concentration of 1.25% (v/v). The kinase reactions were incubated at room temperature for 45 minutes and stopped by washing the plate three times with 100 μl PBS plus 0.05% Tween. […] Following this, the plates were then washed repeatedly with 100 μl PBS plus 0.05% Tween to remove all traces of the antibody solution. 40 μl of 50 μg/ml 3,3′,5,5′-Tetramethylbenzidine (Sigma, T2885), 0.05M phosphate-citrate buffer, containing 0.03% sodium perborate was added to each well and the plates incubated at room temperature for twelve minutes. The colour reaction was stopped by the addition of 20 μl 2M H2SO4 and the plates read at 450 nm on a Spectrafluor Plus (Tecan).

Erk phosphorylation = experiment: Growth factor (bFGF) stimulated Erk phosphorylation in NIH 3T3 cells; conditions: Mus musculus
From the text: These and other assays were used to evaluate the ability of a test compound to inhibit growth factor stimulated cellular signalling in mammalian cell lines. This was achieved by measuring the amount of receptor tyrosine kinase regulated Erk phosphorylation within a cell following compound treatment.
NIH 3T3 (ECACC, 93061524) cells were routinely passaged in DMEM (Gibco BRL, 41966) plus 10% foetal calf serum (FCS), 1% L-glutamine (Gibco BRL, 25030) to a confluence not greater than 80%. To undertake the assay, NIH 3T3's were seeded at 1×10^4 cells/well in DMEM plus 10% foetal calf serum, 1% L-glutamine in 96 well plates (Costar, 3904) and incubated at 37° C. (+5% CO2) in a humidified incubator. Once the cells had fully adhered (typically following 4-5 hours incubation) the media was removed from each well and the cells gently washed with 100μl warm serum free media. 90μl of serum free DMEM plus 1% L-glutamine was then added to each well and the plates were returned to a humidified 37° C. (+5% CO2) incubator. The following day, the plates were dosed with 10[l compound (diluted from 10 mM stock in DMSO using serum free DMEM) and the plates were returned to a humidified 37° C. (+5% CO2) incubator for one hour. NIH 3T3 cells were then stimulated with a final concentration of 3 ng/ml bFGF (Sigma, F029 1) for 20 minutes at 37° C. Following stimulation the cells were fixed by adding formaldehyde (4% v/v final concentration) and incubating at room temperature for 20 minutes. The fixative solution was then removed and the wells were washed twice with 100μl phosphate buffered saline (PBS/A) before permeabilising the cells by the addition of 50 μl/well 0.1% triton/PBS/A for 10 minutes at room temperature. The permeabilisation solution was then removed and the cells washed twice more with 100 μl/well PBS/A before the addition of 50 μl/well anti-phospho p44/42 (Cell Signalling Technology, 9106), diluted 1/500 with PBS/A plus 10% FCS. The anti-phospho p44/42 antibody recognises Erk phosphorylated at threonine 202 and tyrosine 204. […] Finally, the plates were washed three times with 100 μl/well PBS/A, leaving the final wash in the wells before sealing the plates. The plates were read at 350 nm and 488 nm using an Arrayscan (Cellomics).

human IGF1R = target: T4, human IGF1R (Homo sapiens, UniProt P08069); experiment: Inhibition of insulin-like growth factor-1 receptor phosphorylation in R+ cells; assay type: cell-based; conditions: 30 nM IGF1, read-out: IGF cell class
T4 construct: expressed in transfected cells; host or cells: R+ cells (R- mouse fibroblasts transfected with human IGF1R)
T4 sequence (P08069 31-1367): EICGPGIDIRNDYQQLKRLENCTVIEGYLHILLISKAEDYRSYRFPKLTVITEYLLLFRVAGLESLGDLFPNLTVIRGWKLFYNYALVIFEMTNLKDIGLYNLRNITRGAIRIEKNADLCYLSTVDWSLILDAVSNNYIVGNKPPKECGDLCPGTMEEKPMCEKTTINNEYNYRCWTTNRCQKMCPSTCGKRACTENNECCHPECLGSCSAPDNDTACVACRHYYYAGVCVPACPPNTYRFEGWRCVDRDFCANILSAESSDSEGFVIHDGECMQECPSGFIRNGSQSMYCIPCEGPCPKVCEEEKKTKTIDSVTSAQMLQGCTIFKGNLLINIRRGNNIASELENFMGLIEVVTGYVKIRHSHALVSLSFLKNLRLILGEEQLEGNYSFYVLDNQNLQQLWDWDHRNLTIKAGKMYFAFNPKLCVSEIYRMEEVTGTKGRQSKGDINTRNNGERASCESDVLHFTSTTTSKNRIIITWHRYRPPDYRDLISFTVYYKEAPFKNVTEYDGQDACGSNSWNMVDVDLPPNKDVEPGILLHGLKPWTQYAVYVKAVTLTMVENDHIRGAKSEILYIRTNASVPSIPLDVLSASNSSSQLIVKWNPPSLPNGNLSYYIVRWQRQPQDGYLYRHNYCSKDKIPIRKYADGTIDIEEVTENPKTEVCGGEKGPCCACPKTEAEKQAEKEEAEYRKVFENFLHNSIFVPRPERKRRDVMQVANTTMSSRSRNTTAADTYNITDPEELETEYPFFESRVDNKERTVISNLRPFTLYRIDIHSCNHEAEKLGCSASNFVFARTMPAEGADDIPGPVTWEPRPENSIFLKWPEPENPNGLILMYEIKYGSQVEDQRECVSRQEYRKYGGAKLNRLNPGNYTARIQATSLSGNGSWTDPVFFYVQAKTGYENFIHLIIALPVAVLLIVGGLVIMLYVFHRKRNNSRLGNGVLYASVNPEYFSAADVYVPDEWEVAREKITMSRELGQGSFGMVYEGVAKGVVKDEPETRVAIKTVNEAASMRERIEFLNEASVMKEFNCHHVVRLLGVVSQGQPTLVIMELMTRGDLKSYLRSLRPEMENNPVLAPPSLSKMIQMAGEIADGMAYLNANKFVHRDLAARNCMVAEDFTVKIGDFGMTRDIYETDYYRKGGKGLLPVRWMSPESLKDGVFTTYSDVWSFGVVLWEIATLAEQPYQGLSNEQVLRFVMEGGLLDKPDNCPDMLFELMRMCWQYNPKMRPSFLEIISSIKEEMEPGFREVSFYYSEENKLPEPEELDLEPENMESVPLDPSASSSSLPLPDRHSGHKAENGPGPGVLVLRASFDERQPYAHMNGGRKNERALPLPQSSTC

CYP3A4 = target: T5, CYP3A4 (Homo sapiens, UniProt P08684); experiment: Cytochrome P450 inhibition assay, 3A4; assay type: in vitro ADME; conditions: human, pH 7.4, probe coumarin substrate (not named); test concentrations 0.1-10 μM
T5 construct: made in house; host or cells: yeast (microsomal fraction)
T5 sequence (P08684 whole entry): as the sequence (P08684 whole entry) above
Experimental: as §1

FGFR1 IIIc [5] = target: T6, FGFR1 IIIc (Homo sapiens, UniProt P11362); experiment: Cell based inhibition of transiently expressed FGFR1 IIIc phosphorylation via use of ECHO technology (Cos-1 cells); conditions: Cos-1 cells, phospho-FGFR1, ECHO dosing; upper bound of bin; read-out: IC50
T6 construct: host or cells: Cos-1
T6 sequence (P11362 22-822): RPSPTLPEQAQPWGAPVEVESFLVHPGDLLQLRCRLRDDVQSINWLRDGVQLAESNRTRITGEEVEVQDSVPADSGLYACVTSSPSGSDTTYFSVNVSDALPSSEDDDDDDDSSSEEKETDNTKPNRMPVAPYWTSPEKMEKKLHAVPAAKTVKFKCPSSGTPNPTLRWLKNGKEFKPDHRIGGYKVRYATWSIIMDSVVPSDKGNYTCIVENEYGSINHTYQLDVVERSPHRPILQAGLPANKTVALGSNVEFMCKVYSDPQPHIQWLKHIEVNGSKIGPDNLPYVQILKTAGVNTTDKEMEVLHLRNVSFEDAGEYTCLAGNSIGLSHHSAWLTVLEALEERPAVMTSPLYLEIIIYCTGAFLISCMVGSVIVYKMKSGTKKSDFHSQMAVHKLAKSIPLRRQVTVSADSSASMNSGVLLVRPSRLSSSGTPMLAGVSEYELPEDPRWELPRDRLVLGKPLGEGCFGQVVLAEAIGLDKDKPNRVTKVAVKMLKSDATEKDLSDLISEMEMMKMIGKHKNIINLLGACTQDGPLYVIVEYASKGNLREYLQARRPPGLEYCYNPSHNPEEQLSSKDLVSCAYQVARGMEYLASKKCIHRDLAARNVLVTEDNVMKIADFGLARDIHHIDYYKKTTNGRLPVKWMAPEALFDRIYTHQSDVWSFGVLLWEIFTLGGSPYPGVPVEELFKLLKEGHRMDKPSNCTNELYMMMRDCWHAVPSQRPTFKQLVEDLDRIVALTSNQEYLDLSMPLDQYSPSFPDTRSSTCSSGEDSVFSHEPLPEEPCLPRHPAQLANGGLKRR

FGFR1 kinase = FGFR1 kinase (Homo sapiens, UniProt P11362); experiment: Kinase assay (using Caliper technology); assay type: biochemical; conditions: FGFR1 kinase, Caliper; upper bound of bin; read-out: IC50
Chain of FGFR1 kinase (P11362 22-822): as above
Method in brief: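 Human FGFR1 kinase activity measured with a 13-mer fluorescently tagged FGFR1-specific peptide substrate; compounds serially diluted in 5% (v/v) DMSO. Reactions ran 1.5 h at room temperature, stopped with EDTA-containing HEPES pH 7.5 buffer. Phosphorylated and unphosphorylated peptide separated by microfluidic mobility shift.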

FGFR1 IIIc [6] = target: T6, FGFR1 IIIc; experiment: Cell based inhibition of transiently expressed FGFR1 IIIc phosphorylation (Cos-1 cells); conditions: Cos-1 cells, phospho-FGFR1; upper bound of bin; read-out: IC50
[7] = comparative testing, read-out: Fgf Ic50
[8] = FGFR inhibition tests, ELISA kinase assay, read-out: Activity class
[9] = NIH3T3, NIH 3T3 cells, 3 ng/ml bFGF

Row | pIC50 [1] | pIC50 [2] | pIC50 [3] | pIC50 [4] | pIC50 (CYP2D6) | pIC50 (FGFR kinase domain; [7]) | pIC50 (human IGF1R) | pIC50 (CYP3A4) | pIC50 (FGFR kinase domain; [8]) | pIC50 (FGFR1 IIIc [5]) | pIC50 (FGFR1 kinase) | pIC50 (FGFR1 IIIc [6]) | SMILES | pIC50 (Erk phosphorylation; NIH3T3) | pIC50 (Erk phosphorylation; [9])
1 | 5.36 | 6.34 | 5.95 | < 5.00 | < 5.00 | – | – | – | – | – | – | – | Cc1cc(CNc2ncc(Cl)c(Nc3cc(C)[nH]n3)n2)on1 [(b), 5-chloro-N-[(3-methylisoxazol-5-yl)methyl]-N′-(5-methyl-2H-pyrazol-3-yl)pyrimidine-2,4-diamine] | – | –
2 | 5.48 | 6.10 | < 5.00 | < 5.00 | < 5.00 | 6.85 | – | – | – | – | – | – | Cc1cc(Nc2nc(NCc3cc(C)no3)ncc2Br)[nH]n1 [Comparative Example (a), 5-bromo-N-[(3-methylisoxazol-5-yl)methyl]-N′-(5-methyl-2H-pyrazol-3-yl)pyrimidine-2,4-diamine] | – | –
3 | 6.43 | ≥ 7.00 | 5.51 | 5.54 | < 5.00 | 7.05 | – | – | – | – | – | – | CCCc1cc(Nc2nc(NCc3cc(C)no3)ncc2Br)n[nH]1 [Comparative Example (d), 5-bromo-N-[(3-methylisoxazol-5-yl)methyl]-N′-(5-propyl-2H-pyrazol-3-yl)pyrimidine-2,4-diamine] | – | –
4 | 5.24 | < 5.00 | < 5.00 | < 5.00 | < 5.00 | – | < 5.00 | – | – | – | – | – | Cc1cc(CNc2nccc(Nc3cc(C)[nH]n3)n2)on1 [Example 1, N-[(3-methylisoxazol-5-yl)methyl]-N′-(5-methyl-2H-pyrazol-3-yl)pyrimidine-2,4-diamine] | > 6.00 | –
5 | – | 5.66 | < 5.00 | < 5.00 | < 5.00 | 7.40 | 5.00 to 6.00 | < 5.00 | > 7.00 | – | – | – | Cc1cc(CNc2nccc(Nc3cc(C4CC4)[nH]n3)n2)on1 [Example 9, N′-(5-cyclopropyl-2H-pyrazol-3-yl)-N-[(3-methyl-1,2-oxazol-5-yl)methyl]pyrimidine-2,4-diamine] | – | –
6 | – | – | – | – | – | – | < 5.00 | – | > 7.00 | > 6.00 | > 6.70 | > 6.00 | Cc1cc(CNc2nccc(Nc3cc(OC(C)C)[nH]n3)n2)on1 [Example 66, N-[(3-methyl-1,2-oxazol-5-yl)methyl]-N′-(5-propan-2-yloxy-2H-pyrazol-3-yl)pyrimidine-2,4-diamine] | – | > 6.70
7 | – | – | – | – | – | – | 5.00 to 6.00 | – | > 7.00 | > 6.70 | > 6.70 | > 6.70 | CC(C)Oc1cc(Nc2ccnc(NCc3cc(C4CC4)no3)n2)n[nH]1 [Example 67, N-[(3-cyclopropyl-1,2-oxazol-5-yl)methyl]-N′-(5-propan-2-yloxy-2H-pyrazol-3-yl)pyrimidine-2,4-diamine] | – | > 6.70
8 | – | – | – | – | – | – | 5.00 to 6.00 | – | > 7.00 | > 6.70 | > 6.70 | > 6.70 | COc1cc(COc2cc(Nc3ccnc(NCc4cc(C)no4)n3)n[nH]2)cc(OC)c1 [Example 73, N′-[5-[(3,5-dimethoxyphenyl)methoxy]-1H-pyrazol-3-yl]-N-[(3-methyl-1,2-oxazol-5-yl)methyl]pyrimidine-2,4-diamine] | – | > 6.70
9 | – | – | – | 5.34 to 5.82 | – | – | – | – | – | – | – | – | COc1ccc2[nH]c([S+]([O-])Cc3ncc(C)c(OC)c3C)nc2c1 (stereo not drawn) [Omeprazole] | – | –
